PMC2792609, “Effect of methomyl on hepatic mixed function oxidases in rats” (Indian Journal of Pharmacology, 2008)

Columns and labels:
[1] = test system: alanine aminotransferase (SGPT); assay: Serum alanine aminotransferase (SGPT) activity; assay type: in vivo, rat; settings: for Increased activity of alanine aminotransferase: 3 days
Procedure: (§1) Adult male rats (weighing 200-230 g) were divided into four groups of six animals each. Group 1 received an equivalent amount of saline and served as control. Animals from group 2, 3, and 4 were given methomyl 1, 2, and 4 mg/kg body weight i.p. respectively, between 8: 00 a.m. and 9:00 a.m., for three consecutive days. In the second set of experiments, adult male rats were divided into four groups. Animals from group 2, 3, and 4 were injected with 4 mg/kg body weight methomyl for one, three, and five successive days. The volume injected into the rats of body weight 200 g was 1 ml. […]
(§2) Alanine aminotransferase and aspartate aminotransferase activity was measured using the Reitman and Frankel[12] method. Alkaline phosphatase activity was measured using Span diagnostic kits.[13] Cholinesterase activity was measured using the kinetic test method of Knedel et al.[14]

Serum cholinesterase = target: T1, Serum cholinesterase (Rattus norvegicus, UniProt Q9JKC1); assay: Serum cholinesterase activity; assay type: in vivo; settings: for depression of acetyl cholinesterase activity: 3 days
T1 construct: from tissue; host or cells: rat serum
Procedure: as §1, §2

[2] = test system: alanine aminotransferase (SGPT); assay: Serum alanine aminotransferase (SGPT) activity; assay type: in vivo, rat; settings: female rats; for SGPT: for 3 days
mixed function oxidases = settings: quails; cited from earlier work
[3] = female rats, 4 mg/kg body weight i.p., for 3 days
[4] = male rats, 1 mg/kg body weight i.p., for three days
[5] = male rats, 2 mg/kg body weight i.p., for three days
[6] = male rats, 4 mg/kg body weight i.p., for three days

T1 sequence (Q9JKC1 24-597): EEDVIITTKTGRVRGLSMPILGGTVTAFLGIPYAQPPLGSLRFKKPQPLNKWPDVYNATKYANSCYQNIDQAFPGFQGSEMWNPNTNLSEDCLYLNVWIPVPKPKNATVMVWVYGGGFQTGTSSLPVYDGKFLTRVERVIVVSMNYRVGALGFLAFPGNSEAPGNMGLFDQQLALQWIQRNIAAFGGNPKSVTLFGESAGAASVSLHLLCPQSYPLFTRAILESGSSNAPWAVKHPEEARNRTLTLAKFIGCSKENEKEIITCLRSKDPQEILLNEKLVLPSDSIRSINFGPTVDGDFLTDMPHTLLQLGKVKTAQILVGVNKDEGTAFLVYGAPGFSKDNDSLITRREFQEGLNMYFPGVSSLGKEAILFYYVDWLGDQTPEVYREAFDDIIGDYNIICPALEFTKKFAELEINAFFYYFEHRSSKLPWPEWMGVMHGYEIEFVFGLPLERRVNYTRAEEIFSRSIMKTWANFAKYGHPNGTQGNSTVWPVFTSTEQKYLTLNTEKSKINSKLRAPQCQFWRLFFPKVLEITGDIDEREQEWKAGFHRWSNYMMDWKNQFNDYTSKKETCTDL

In the case of `CNC(=O)ON=C(C)SC` [methomyl, S-methyl-N-(methyl carbomyl)-thioacetimidate], the SGPT [1, 3] is reported as 50.0 u/l, the “Increased activity of alanine aminotransferase” value (“Increased activity” below) ([1]; female rats, 4 mg/kg i.p.) is reported as 24% and the SGPT [1, 4] is reported as 47.3 u/l. The SGPT [1, 5] was 50.0 u/l, the “Increased activity” value ([1]; male rats, 2 mg/kg i.p.) was 12% and the SGPT [1, 6] was 53.6 u/l. For the same compound, the “Increased activity” value ([1]; male rats, 4 mg/kg i.p.) was 20%, the Serum cholinesterase (Serum cholinesterase; [3]) was 844 u/l and the “depression of acetyl cholinesterase activity” value (“depression” for short) (Serum cholinesterase; female rats, 4 mg/kg i.p.) was 66%. The Serum cholinesterase (Serum cholinesterase; [4]) was 1120 u/l, the “depression” value (Serum cholinesterase; male rats, 1 mg/kg i.p.) was 15% and the Serum cholinesterase (Serum cholinesterase; [5]) was 949 u/l. The “depression” value (Serum cholinesterase; male rats, 2 mg/kg i.p.) was 28%, the Serum cholinesterase (Serum cholinesterase; [6]) was 848 u/l and the “depression” value (Serum cholinesterase; male rats, 4 mg/kg i.p.) was 35%. The SGPT ([2]; 1 mg/kg body weight i.p.) was 43.0 u/l, the SGPT ([2]; 2 mg/kg body weight i.p.) was 46.0 u/l and the “Increased activity” value ([2]; 2 mg/kg i.p., 3 days) was 14%. For the same compound, the “activity of mixed function oxidases” value (mixed function oxidases) was “inhibited”.
